Data reported in BigSolDB 2.1.

CC(=CC(C)=Nc1c(C)cccc1C)Nc1c(C)cccc1C
solubility (mole fraction)
Conditions	273.15 K	278.15 K	283.15 K	288.15 K	293.15 K	298.15 K	303.15 K
in THF	0.345	0.362	0.381	0.403	0.429	0.456	0.487
in diethyl ether	0.188	0.204	0.22	0.239	0.265	0.295	0.334
in ethanol	0.0093	0.0099	0.0107	0.0117	0.0129	0.0143	0.0166
in methanol	0.0015	0.0017	0.002	0.0024	0.0029	0.0033	0.0041
in n-hexane	0.167	0.194	0.223	0.253	0.285	0.316	0.347
in toluene	0.266	0.296	0.324	0.347	0.374	0.433	0.503
